Results taken from patent US5621133A (priority 1995, dated 1997).
pEC50, pKi: −log10 of the molar value. Counter-ions that a name gives are not always drawn. Like-named read-outs stand apart in the source and are kept apart here.

How the values were obtained:
[1] = biological target: dopamine D-2 receptor (Rattus norvegicus, UniProt P61169); test: biochemical; assay type: binding; conditions: rat caudate, [125I]-p-aminophenylethyl spiroperidol; read-out: D-2 Ki
Procedure: Homogenized rat caudate was the source of the D-2 receptors. […] The molar affinity of the compound for the receptor binding site was calculated by the same method used for the D-1 receptor assay, assuming a competitive interaction between the compound and the radiolabeled ligand.

[2] = system: striatal dopamine receptors; test: Rotation behavior assay of in vivo activity (6-hydroxydopamine lesioned rat rotational model); conditions: for ED50 s.c. (rotation behavior): injected subcutaneously
[3] = system: dopamine D-1 receptor; conditions: for Intrinsic Activity (adenylate cyclase assay): dopamine = 100, goldfish retina or rat striatum; for pEC50: read-out: EC50 (agonist activity in adenylate cyclase assay), tissue from goldfish retina or rat striatum
Procedure: In order to determine agonist activity, cell-free tissue homogenates are incubated in an ionic buffer solution containing ATP and the compound being evaluated. The tissue was obtained from either goldfish retina or rat striatum.

[4] = biological target: dopamine D-1 receptor (Rattus norvegicus, UniProt P18901); test: biochemical; conditions: D-1 Ki, rat caudate, [125I]SCH-23982
dopamine D-1 receptor (Rattus norvegicus, UniProt P18901), sequence (P18901 whole entry): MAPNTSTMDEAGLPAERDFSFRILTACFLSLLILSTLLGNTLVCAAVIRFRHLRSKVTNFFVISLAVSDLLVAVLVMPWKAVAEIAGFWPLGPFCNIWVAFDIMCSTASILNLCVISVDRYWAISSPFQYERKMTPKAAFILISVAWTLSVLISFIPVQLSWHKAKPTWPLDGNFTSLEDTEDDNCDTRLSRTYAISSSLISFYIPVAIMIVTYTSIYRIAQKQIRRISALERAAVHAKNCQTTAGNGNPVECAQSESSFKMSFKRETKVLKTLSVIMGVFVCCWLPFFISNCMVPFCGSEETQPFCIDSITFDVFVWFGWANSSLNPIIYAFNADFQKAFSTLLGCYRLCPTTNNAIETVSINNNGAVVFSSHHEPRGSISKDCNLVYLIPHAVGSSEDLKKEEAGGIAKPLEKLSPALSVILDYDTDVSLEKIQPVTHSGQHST
Description: The compounds compete with the radiolabeled ligand for occupancy of the receptors and the molar potency of each compound was quantified.
The Ki values are inversely proportional to the affinity of the compound for the receptor.

dopamine D-2 receptor, sequence (P61169 whole entry): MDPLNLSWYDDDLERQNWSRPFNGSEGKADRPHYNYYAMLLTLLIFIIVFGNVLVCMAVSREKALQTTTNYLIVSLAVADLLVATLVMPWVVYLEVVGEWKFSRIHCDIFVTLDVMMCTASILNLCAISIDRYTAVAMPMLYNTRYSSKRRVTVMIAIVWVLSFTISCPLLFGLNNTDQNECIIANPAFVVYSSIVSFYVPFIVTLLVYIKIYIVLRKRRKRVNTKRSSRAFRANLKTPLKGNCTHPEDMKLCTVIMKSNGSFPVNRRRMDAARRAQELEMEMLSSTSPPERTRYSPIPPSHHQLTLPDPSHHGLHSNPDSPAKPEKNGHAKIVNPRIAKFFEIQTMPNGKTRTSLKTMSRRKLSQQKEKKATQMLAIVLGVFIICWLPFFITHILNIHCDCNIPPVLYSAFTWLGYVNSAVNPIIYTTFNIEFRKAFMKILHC

Row | SMILES | pKi [1] | Intrinsic Activity (adenylate cyclase assay) [3] | pEC50 [3] | pKi [4] | pEC50 ([3]; Hydrobromide) | ED50 s.c. (rotation behavior) [2] [µmol/kg] | ED50 oral (rotation behavior) [2] [µmol/kg] | mean rotations over 360 minutes ([2]; dose = 143 micromoles/kg p.o.) | mean rotations over 20 hours ([2]; dose = 143 micromoles/kg p.o.)
1 | NC[C@H]1O[C@@H](COc2ccccc2)Cc2c1ccc(O)c2O (relative stereo) [Example 55] | 5.82 | 51 | 7.62 | 6.42 |  | 13.6 |  |  | 
2 | Cl.NCC1=CC(c2ccccc2)Cc2c1ccc(OC(=O)c1ccccc1)c2OC(=O)c1ccccc1 (centres unmarked) [Example 16, 1-Aminomethyl-5,6-bis(benzoyloxy)-3-phenyl-3,4-dihydronaphthalene Hydrochloride] |  |  |  |  |  |  |  | 4844 | 
3 | Oc1ccc2c(c1O)CC1(CCCCCCCC1)C1=C2CNCC1 [Example 241] | 5.54 | 48 | 6.40 | 6.40 |  | > 3 |  |  | 
4 | CN(C)C[C@@H]1O[C@H](C(C)(C)C)Cc2c1ccc(O)c2O [Example 147] | < 5.00 | 89 | 7.18 | 6.40 |  | 0.05 |  |  | 
5 | CC(=O)Oc1ccc2c(c1OC(C)=O)CC(c1ccccc1)C=C2CNC(=O)OC(C)OC(C)=O (centres unmarked) [Example 6] |  |  |  |  |  |  |  |  | 2564
6 | CN1CCC2=C(C1)c1ccc(O)c(O)c1CC21CCCCCCC1 [Example 250] | 5.80 |  |  | 6.82 |  | 0.51 |  |  | 
7 | CN1CCC2=C(C1)c1ccc(O)c(O)c1CC2C(C)(C)C (centres unmarked) [Example 244] | 5.92 |  |  | 6.62 |  | > 3 |  |  | 
8 | C[C@H](N)C(=O)N[C@@H](C)C(=O)NCC1=CC(c2ccccc2)Cc2c1ccc(OC(=O)c1ccccc1)c2OC(=O)c1ccccc1 (some centres unmarked) [Example 15] |  |  |  |  |  |  |  | 1760 | 
9 | CSCC[C@H](N)C(=O)NCC1=CC(c2ccccc2)Cc2c1ccc(OC(C)=O)c2OC(C)=O (some centres unmarked) [Example 14] |  |  |  |  |  |  |  | 3653 | 
10 | NCC[C@H]1Cc2c(ccc(O)c2O)[C@@H](CN)O1 (relative stereo) [Example 159] | 5.43 | 129 | 6.82 | 5.51 |  |  |  |  | 
11 | NC[C@@H]1O[C@H](COc2ccc(Br)cc2)Cc2c1ccc(O)c2O (relative stereo) [Example 58] | 5.92 | 63 | 7.72 | 6.59 |  |  |  |  | 
12 | CC(=O)Oc1ccc2c(c1OC(C)=O)CC(c1ccccc1)C=C2CNC(=O)[C@H](C)N (some centres unmarked) [Example 10] |  |  |  |  |  |  |  | 1516 | 
13 | NCC1=CC(c2ccc(O)cc2)Cc2c1ccc(O)c2O (centres unmarked) [Example 39] | < 5.00 | 84 | 7.30 | 5.85 |  |  |  |  | 
14 | CNCC1OC(CC(C)C)Cc2c1ccc(O)c2O (centres unmarked) [Example 219] | 5.80 |  |  | 5.40 |  | 0.09 |  |  | 
15 | CCOC(=O)CC(=O)NC[C@@H]1Cc2c(ccc(O)c2O)[C@H](CN)O1 (relative stereo) [Example 92] | 5.27 | 69 | 6.22 | 5.82 |  |  |  |  | 
16 | NC[C@@H]1O[C@H](COCc2ccccc2)Cc2c1ccc(O)c2O (relative stereo) [Example 75] | 5.34 | 60 | 6.54 | 6.32 |  |  |  |  | 
17 | CC(=O)Oc1ccc2c(c1OC(C)=O)CC(c1ccccc1)C=C2CNC(=O)[C@H](C)NC(=O)[C@H](C)N (some centres unmarked) [Example 4, 5,6-Bis(acetoxy)-1-(alanyl-alanyl)aminomethyl-3-phenyl-3,4-dihydronaphthalene Hydrochloride] |  |  |  |  |  |  |  | 3329 | 

Now from value to compound, other results behind:

Row | pKi [1] | Intrinsic Activity (adenylate cyclase assay) [3] | pEC50 [3] | pKi [4] | pEC50 ([3]; Hydrobromide) | SMILES | ED50 s.c. (rotation behavior) [2] [µmol/kg] | ED50 oral (rotation behavior) [2] [µmol/kg] | mean rotations over 360 minutes ([2]; dose = 143 micromoles/kg p.o.) | mean rotations over 20 hours ([2]; dose = 143 micromoles/kg p.o.)
18 | < 5.00 | 71 | 6.55 | 7.52 |  | CN(C)C[C@@H]1O[C@H](C2CCCCC2)Cc2c1ccc(O)c2O (relative stereo) [Example 228] | 0.1 |  |  | 
19 | 5.77 | 76 | 6.89 | 7.05 |  | CNC[C@@H]1O[C@H](C2(c3ccccc3)CCCCC2)Cc2c1ccc(O)c2O (relative stereo) [Example 225] | > 3 |  |  | 
20 | 5.82 | 124 | 8.10 | 7.42 |  | CNC[C@@H]1O[C@H](C(C)(C)C)Cc2c1ccc(O)c2O.Cl [Example 112, [1R,3S]3-t-butyl-5,6-dihydroxy-1-methylaminomethyl-3,4-dihydro-1H-2-benzopyran hydrochloride] | 0.10 | 1.0 |  | 
21 | 5.57 | 52 | 7.15 | 7.40 |  | NC[C@@H]1O[C@H](C2(c3ccccc3)CCCCC2)Cc2c1ccc(O)c2O (relative stereo) [Example 223] | > 3 |  |  | 
22 | 5.28 | 70 | 6.89 | 6.12 |  | Oc1ccc2c(c1O)CC1(CCCCCCCCC1)C1=C2CNCC1 [Example 240] | > 3 |  |  | 
23 | 5.89 | 98 |  | 7.33 | 7.28 | Br.CN1CCC2=C(C1)c1ccc(O)c(O)c1CC2c1ccccc1 (centres unmarked) [Example 210, 2-Methyl-5-phenyl-1,2,3,4,5,6-hexahydrobenzo[h]isoquinoline-7,8-diol Hydrobromide] | 0.005 | 1.6 |  | 
24 | 5.82 | 100 | 7.17 | 6.68 |  | Oc1ccc2c(c1O)CC1(CCCCC1)C1=C2CNCC1 [Example 205] | 3.4 |  |  | 
25 | 5.82 | 133 | 7.92 | 6.89 |  | NC[C@@H]1O[C@H](CC2CCCCC2)Cc2c1ccc(O)c2O (relative stereo) [Example 88] | 0.61 | 32 |  | 
26 | 6.09 | 147 | 7.82 | 7.31 |  | NC[C@@H]1O[C@H](CC2CCCC2)Cc2c1ccc(O)c2O (relative stereo) [Example 78] |  |  |  | 
27 | 5.77 | 136 | 6.85 | 5.89 |  | NC[C@H]1O[C@@H](CCO)Cc2c1ccc(O)c2O (relative stereo) [Example 160] |  |  |  | 
28 | < 5.00 | 42 | 5.55 | 6.10 |  | CCCC(=O)Oc1ccc2c(c1OC(=O)CCC)CC(c1ccccc1)C=C2CN (centres unmarked) [Example 17] |  |  |  | 
29 | < 5.00 | 82 | 7.24 | 5.40 |  | NCC1CC2(CCCCC2)Cc2c1ccc(O)c2O (centres unmarked) [Example 194] |  |  |  | 
30 | < 5.00 | 49 | 5.77 | 5.42 |  | NCC1=CC2(CCCCCCCC2)Cc2c1ccc(O)c2O [Example 232] |  |  |  | 
31 | 5.89 | 46 | 6.37 | 5.66 |  | NC[C@H]1O[C@@H](COc2ccccc2-c2ccccc2)Cc2c1ccc(O)c2O (relative stereo) [Example 56] |  |  |  | 
32 | 6.19 | 67 | 7.64 | 6.60 |  | COc1ccc(OC[C@H]2Cc3c(ccc(O)c3O)[C@@H](CN)O2)cc1 (relative stereo) [Example 53] |  |  |  | 
33 | < 5.00 | 71 | 7.06 | 6.72 |  | CNCC1OC2(CCCCCCC2)Cc2c1ccc(O)c2O (centres unmarked) [Example 142] |  |  |  | 
34 | < 5.00 | 69 | 6.66 | 5.77 |  | Cl.NCc1cc(-c2ccccc2)cc2c(O)c(O)ccc12 [Example 46, 1-Aminomethyl-5,6-dihydroxy-3-phenylnaphthalene Hydrochloride] |  |  |  | 
35 | 5.37 | 0 | < 5.00 | 6.00 |  | CC(C)(C)C1Cc2c(ccc(O)c2O)C2=C1CCNC2 (centres unmarked) [Example 203] |  |  |  | 
36 | 5.22 | 100 | 6.48 | 5.64 |  | NC[C@H]1O[C@@H](CN2CCCCC2)Cc2c1ccc(O)c2O (relative stereo) [Example 158] |  |  |  | 
37 | 5.57 | 108 | 7.14 | 7.06 |  | NC[C@@H]1O[C@H](c2ccc(Br)cc2)Cc2c1ccc(O)c2O (relative stereo) [Example 69] |  |  |  | 
38 | < 5.00 | 104 | 7.00 | 6.28 |  | NCC1OC2(CCOCC2)Cc2c1ccc(O)c2O (centres unmarked) [Example 95] |  |  |  | 
39 | 5.51 | 97 | 6.00 | 5.68 |  | C=CCNC[C@@H]1O[C@H](C(C)(C)C)Cc2c1ccc(O)c2O [Example 129] |  |  |  | 
40 | < 5.00 | 54 | 6.00 | 5.22 |  | CCOC(=O)Oc1ccc2c(c1OC(=O)OCC)CC(c1ccccc1)C=C2CN (centres unmarked) [Example 29] |  |  |  | 
41 | 5.34 | 61 | 7.17 | 6.68 |  | NC[C@@H]1O[C@H](C2CCCCC2)Cc2c1cc(Br)c(O)c2O (relative stereo) [Example 81] |  |  |  | 
42 | 4.92 | 70 | 6.82 | 5.62 |  | NC[C@H]1C[C@@H](c2ccc3ccccc3c2)Cc2c1ccc(O)c2O (relative stereo) [Example 43] |  |  |  | 
